Tests used:
A2780 = A2780 viability assay (CellTiter-Glo, 72 hours); type: cell-based; conditions: Homo sapiens; A2780 cells
Outline: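 RPMI-1640/10% FBS; plate cells (MV4-11 1×10^4, OVCAR-3 5×10^3, A2780 1×10^3 per well); 24 h later add compound 0.0015–10 uM; 72 h, 37° C; CellTiter-Glo luminescence, duplicate wells.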

CDK2/Cyclin A = molecular target: T1, CDK2/Cyclin A (Homo sapiens, UniProt P24941); assay: Enzymatic assay for CDK2 (LANCE Ultra kinase assay, FRET based); type: biochemical; conditions: ATP at Km
T1 construct: purchased Invitrogen PV6290
Outline: (§1)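 Compounds tested as 8 doses in 4-fold steps against CDK2/Cyclin A ([…]) or CDK5/p25 ([…]), with ATP at its Km and 68 nM ULight-MBP substrate. After 60 min at 23° C., EDTA plus Eu-labelled anti-phospho-MBP added; TR-FRET (615/665 nm) read after another 60 min.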

CDK7/Cyclin H/MNAT1 = molecular target: T2, CDK7/Cyclin H/MNAT1 (Homo sapiens, UniProt P50613); assay: Enzymatic assay for CDK7 (LANCE Ultra kinase assay, FRET based); type: biochemical; conditions: for IC50: ATP at Km
T2 construct: purchased Invitrogen PR6749B
Outline: (§2)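 Purified CDK–cyclin enzyme, ATP at Km; ULight peptide substrate; TR-FRET via Eu anti-phospho-Ab; inhibition scored.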

CDK5/p25 = molecular target: T3, CDK5/p25 (Homo sapiens, UniProt Q00535); assay: Enzymatic assay for CDK5 (LANCE Ultra kinase assay, FRET based); type: biochemical; conditions: ATP at Km
T3 construct: purchased Invitrogen PR8543B
Outline: as §1

OVCAR-3 = OVCAR-3 viability assay (CellTiter-Glo, 72 hours); type: cell-based; conditions: Homo sapiens; OVCAR-3 cells
Description: Human […] cell line, MV4-11_(ATCC, Cat #CRL-9591), NSCLC (Non-small cell lung cancer) cell line H460 (ATCC, Cat #HTB-177), A2780 (ECACC, Cat #93112519) and OVCAR-3(ATCC, Cat #HTB-161) were obtained from ATCC. Cells were grown in RPMI-1640 media (Invitrogen, Cat #22400-089) supplemented with 10% FBS (Invitrogen, Cat #10099141) and 1% penicillin/streptomycin (Invitrogen, Cat #15070063) and cultured at 37° C., 5% CO2 in a humidified chamber. All cell lines were routinely tested for mycoplasma.
To effect of the CDK7 inhibitor to inhibit the growth of target cancer cells, viability assay were conducted a 72 hour time period. Briefly, the candidate cell line was plated in 96 well plate at the following density of cells respectively. 1×10^4 cells/well for MV4-11, 5×10^3 for H460 and OVCAR-3, and 1×10^3 for A2780. After 24 hours, the cells were treated with various concentrations of the compound (ranging from 0.0015 uM to 10 uM). DMSO solvent without compound served as a control and final DMSO concentration lest than 0.1%. After 72 hours of incubation at 37° C., 5% CO2 incubator, cells were analyzed for the viability using the CellTiter-Glo Luminescent Cell Viability Assay (Promega, Cat #G7570). All viability assays were performed in duplicate and Luminescence was read using an Envision (Perkin Elmer, USA). Data was analyzed using XLfit software.

CDK1/Cyclin B = molecular target: T4, CDK1/Cyclin B (Homo sapiens, UniProt P06493); assay: Enzymatic assay for CDK1 (LANCE Ultra kinase assay, FRET based); type: biochemical; conditions: ATP at Km; read-out: CDK1 enzymatic activity IC50
T4 construct: purchased Invitrogen PR4768C
Outline: as §2

T3 sequence (Q00535 whole entry): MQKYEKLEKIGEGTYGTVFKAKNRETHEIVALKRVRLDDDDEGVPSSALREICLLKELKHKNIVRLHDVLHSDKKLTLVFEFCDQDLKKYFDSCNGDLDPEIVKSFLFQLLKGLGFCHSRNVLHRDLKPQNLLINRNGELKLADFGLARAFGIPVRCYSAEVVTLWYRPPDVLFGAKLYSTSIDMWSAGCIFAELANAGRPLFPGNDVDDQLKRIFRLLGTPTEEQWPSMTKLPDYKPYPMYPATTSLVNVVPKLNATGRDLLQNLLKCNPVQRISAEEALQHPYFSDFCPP
T3 sequence (Q15078 99-307 partner limits assumed): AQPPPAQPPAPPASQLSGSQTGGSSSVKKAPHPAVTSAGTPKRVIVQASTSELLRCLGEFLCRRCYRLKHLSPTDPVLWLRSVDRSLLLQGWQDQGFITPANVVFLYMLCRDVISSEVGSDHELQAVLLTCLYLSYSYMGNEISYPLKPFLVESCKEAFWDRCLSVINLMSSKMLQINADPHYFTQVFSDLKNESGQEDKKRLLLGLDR
T2 sequence (P50613 whole entry): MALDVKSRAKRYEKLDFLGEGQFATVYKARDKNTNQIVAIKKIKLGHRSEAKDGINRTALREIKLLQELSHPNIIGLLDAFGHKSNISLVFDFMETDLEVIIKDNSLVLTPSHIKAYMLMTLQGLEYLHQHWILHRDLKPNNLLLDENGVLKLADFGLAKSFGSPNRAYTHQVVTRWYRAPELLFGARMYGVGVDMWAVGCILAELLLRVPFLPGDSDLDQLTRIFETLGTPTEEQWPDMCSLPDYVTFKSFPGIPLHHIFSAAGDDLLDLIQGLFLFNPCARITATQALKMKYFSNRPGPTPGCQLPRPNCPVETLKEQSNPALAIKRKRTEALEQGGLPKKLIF
T2 sequence (P51946 whole entry partner): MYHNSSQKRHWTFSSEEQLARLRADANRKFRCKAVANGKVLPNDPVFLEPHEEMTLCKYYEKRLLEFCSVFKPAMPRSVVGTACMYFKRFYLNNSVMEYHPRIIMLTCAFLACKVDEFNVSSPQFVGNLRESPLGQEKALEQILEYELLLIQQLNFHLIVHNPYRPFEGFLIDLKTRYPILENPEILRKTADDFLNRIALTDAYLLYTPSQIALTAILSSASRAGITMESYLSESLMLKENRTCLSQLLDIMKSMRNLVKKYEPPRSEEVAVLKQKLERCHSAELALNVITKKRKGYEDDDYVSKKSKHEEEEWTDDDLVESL
T2 sequence (P51948 whole entry partner): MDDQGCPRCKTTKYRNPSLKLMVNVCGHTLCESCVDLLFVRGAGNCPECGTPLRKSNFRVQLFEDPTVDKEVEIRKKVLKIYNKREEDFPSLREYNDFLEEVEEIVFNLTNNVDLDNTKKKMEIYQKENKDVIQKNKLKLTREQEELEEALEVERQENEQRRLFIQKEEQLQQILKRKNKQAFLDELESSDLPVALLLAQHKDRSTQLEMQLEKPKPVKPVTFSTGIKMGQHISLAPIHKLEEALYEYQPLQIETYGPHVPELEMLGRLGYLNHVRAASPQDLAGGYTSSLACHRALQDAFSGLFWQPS
T4 sequence (P06493 whole entry): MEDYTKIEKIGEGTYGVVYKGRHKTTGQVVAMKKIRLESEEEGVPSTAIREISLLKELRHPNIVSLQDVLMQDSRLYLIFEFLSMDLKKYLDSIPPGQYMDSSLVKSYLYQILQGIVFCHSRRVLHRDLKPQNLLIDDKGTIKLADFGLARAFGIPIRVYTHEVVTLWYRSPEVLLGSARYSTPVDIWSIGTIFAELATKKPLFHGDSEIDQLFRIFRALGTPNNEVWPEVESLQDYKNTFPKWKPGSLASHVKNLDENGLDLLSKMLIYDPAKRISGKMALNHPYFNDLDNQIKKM
T4 sequence (P14635 whole entry partner): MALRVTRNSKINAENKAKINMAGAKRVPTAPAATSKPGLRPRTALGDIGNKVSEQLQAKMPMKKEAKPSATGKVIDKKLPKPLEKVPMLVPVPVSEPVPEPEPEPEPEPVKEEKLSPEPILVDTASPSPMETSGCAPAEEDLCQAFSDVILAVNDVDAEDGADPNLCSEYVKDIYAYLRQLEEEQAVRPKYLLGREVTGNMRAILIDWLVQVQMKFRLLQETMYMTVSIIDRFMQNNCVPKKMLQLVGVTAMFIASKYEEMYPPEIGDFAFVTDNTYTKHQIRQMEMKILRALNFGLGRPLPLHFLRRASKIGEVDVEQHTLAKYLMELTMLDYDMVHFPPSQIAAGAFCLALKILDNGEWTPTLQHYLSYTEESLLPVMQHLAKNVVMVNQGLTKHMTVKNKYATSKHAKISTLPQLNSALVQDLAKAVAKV

Row | Structure (SMILES) | IC50 (A2780) [µM] | IC50 (CDK2/Cyclin A) [µM] | IC50 (CDK7/Cyclin H/MNAT1) [µM] | CDK1/CDK7: Selectivity of CDK7 inhibition over CDK1 inhibition (CDK7/Cyclin H/MNAT1) | CDK2/CDK7: Selectivity of CDK7 inhibition over CDK2 inhibition (CDK7/Cyclin H/MNAT1) | CDK5/CDK7: Selectivity of CDK7 inhibition over CDK5 inhibition (CDK7/Cyclin H/MNAT1) | IC50 (CDK5/p25) [µM] | IC50 (OVCAR-3) [µM] | IC50 (CDK1/Cyclin B) [µM]
1 | CC(C)c1cnn2c(NCc3ccccc3-c3nccc4cc(NC(=O)/C=C/CN(C)C)ccc34)nc(NC[C@H]3CNC[C@@H]3O)nc12 [Compound 109] | 1 to 10 | > 1 | < 0.1 | A (A indicates [fold] > 500) | A (A indicates [fold] > 500) | A (A indicates [fold] > 500) | > 1 | 1 to 10 | > 1
2 | C=CC(=O)Nc1ccc2c(-c3ccccc3CNc3nc(N4C5CCC4CC(O)C5)nc4c(C(C)C)cnn34)nccc2c1 (stereo not drawn) [Compound 114] | 1 to 10 | > 1 | < 0.1 | A (A indicates [fold] > 500) | A (A indicates [fold] > 500) | A (A indicates [fold] > 500) | > 1 | < 1 | > 1
3 | CC(C)c1cnn2c(NCc3ccccc3-c3nccc4cc(NC(=O)/C=C/CN(C)C)ccc34)nc(N3CCCC4(CC3)OCCO4)nc12 [Compound 115] | < 1 | > 1 | 0.1 to 1 | B (B indicates 50 < [fold] ≤ 500) | B (B indicates 50 < [fold] ≤ 500) | B (B indicates 50 < [fold] ≤ 500) | > 1 | 1 to 10 | > 1
4 | C=CC(=O)Nc1ccc2c(-c3ccccc3CNc3cc(N[C@H]4CC[C@H](OC)CC4)nc4c(C(C)C)cnn34)nccc2c1 [Compound 116] | < 1 | > 1 | < 0.1 | A (A indicates [fold] > 500) | A (A indicates [fold] > 500) | A (A indicates [fold] > 500) | > 1 | < 1 | > 1
5 | CC(C)c1cnn2c(NCc3ccccc3-c3nccc4cc(NC(=O)/C=C/CN(C)C)ccc34)nc(N3CCC4(CCOC4)CC3)nc12 [Compound 117] | < 1 | > 1 | 0.1 to 1 | B (B indicates 50 < [fold] ≤ 500) | B (B indicates 50 < [fold] ≤ 500) | B (B indicates 50 < [fold] ≤ 500) | > 1 | < 1 | > 1
6 | C=CC(=O)Nc1ccc2c(-c3ccccc3CNc3cc(N4CCC5(CC4)OCCO5)nc4c(C(C)C)cnn34)nccc2c1 [Compound 118] | < 1 | > 1 | < 0.1 | A (A indicates [fold] > 500) | A (A indicates [fold] > 500) | A (A indicates [fold] > 500) | > 1 | < 1 | > 1
7 | C=CC(=O)Nc1ccc2c(-c3ccccc3CNc3cc(N4C5CCC4CC(OC)C5)nc4c(C(C)C)cnn34)nccc2c1 (stereo not drawn) [Compound 119] | < 1 | > 1 | 0.1 to 1 | B (B indicates 50 < [fold] ≤ 500) | B (B indicates 50 < [fold] ≤ 500) | B (B indicates 50 < [fold] ≤ 500) | > 1 | < 1 | > 1
8 | CC(C)c1cnn2c(NCc3ccccc3-c3nccc4cc(NC(=O)/C=C/CN(C)C)ccc34)nc(N3CCOC4(CCN(C)CC4)C3)nc12 [Compound 120] | < 1 | > 1 | < 0.1 | A (A indicates [fold] > 500) | A (A indicates [fold] > 500) | A (A indicates [fold] > 500) | > 1 | < 1 | > 1
9 | CC(C)c1cnn2c(NCc3ccccc3-c3nccc4cc(NC(=O)/C=C/CN(C)C)ccc34)nc(N3CCC4(CCN(C)C4)CC3)nc12 [Compound 121] | < 1 | > 1 | < 0.1 | B (B indicates 50 < [fold] ≤ 500) | B (B indicates 50 < [fold] ≤ 500) | B (B indicates 50 < [fold] ≤ 500) | > 1 | < 1 | > 1

Continued, values first:

Row | IC50 (A2780) [µM] | IC50 (CDK2/Cyclin A) [µM] | IC50 (CDK7/Cyclin H/MNAT1) [µM] | CDK1/CDK7: Selectivity of CDK7 inhibition over CDK1 inhibition (CDK7/Cyclin H/MNAT1) | CDK2/CDK7: Selectivity of CDK7 inhibition over CDK2 inhibition (CDK7/Cyclin H/MNAT1) | CDK5/CDK7: Selectivity of CDK7 inhibition over CDK5 inhibition (CDK7/Cyclin H/MNAT1) | IC50 (CDK5/p25) [µM] | IC50 (OVCAR-3) [µM] | IC50 (CDK1/Cyclin B) [µM] | Structure (SMILES)
10 | < 1 | > 1 | 0.1 to 1 | B (B indicates 50 < [fold] ≤ 500) | B (B indicates 50 < [fold] ≤ 500) | B (B indicates 50 < [fold] ≤ 500) | > 1 | < 1 | > 1 | CC(C)c1cnn2c(NCc3ccccc3-c3nccc4cc(NC(=O)/C=C/CN(C)C)ccc34)nc(NC3CCS(=O)(=O)CC3)nc12 [Compound 107]
11 | < 1 | > 1 | 0.1 to 1 | C (C indicates [fold] ≤ 50) | C (C indicates [fold] ≤ 50) | C (C indicates [fold] ≤ 50) | > 1 | < 1 | > 1 | CC(C)c1cnn2c(NCc3ccccc3-c3nccc4cc(NC(=O)/C=C/CN(C)C)ccc34)nc(N3CC4(COC4)C3)nc12 [Compound 108]
12 | < 1 | > 1 | < 0.1 | B (B indicates 50 < [fold] ≤ 500) | B (B indicates 50 < [fold] ≤ 500) | B (B indicates 50 < [fold] ≤ 500) | > 1 | < 1 | > 1 | CC(C)c1cnn2c(NCc3ccccc3-c3nccc4cc(NC(=O)/C=C/CN(C)C)ccc34)nc(N3CCC4(CC3)OCCO4)nc12 [Compound 110]
13 | < 1 | > 1 | < 0.1 | A (A indicates [fold] > 500) | A (A indicates [fold] > 500) | A (A indicates [fold] > 500) | > 1 | < 1 | > 1 | C=CC(=O)Nc1ccc2c(-c3ccccc3CNc3nc(NC[C@H]4CNC[C@@H]4O)nc4c(C(C)C)cnn34)nccc2c1 [Compound 111]
14 | < 1 | > 1 | 0.1 to 1 | B (B indicates 50 < [fold] ≤ 500) | B (B indicates 50 < [fold] ≤ 500) | B (B indicates 50 < [fold] ≤ 500) | > 1 | < 1 | > 1 | C=CC(=O)Nc1cccc2ccc(-c3cccc(C)c3CNc3nc(N[C@H]4CC[C@H](OC)CC4)nc4c(C(C)C)cnn34)nc12 [Compound 112]
15 | < 1 | > 1 | < 0.1 | B (B indicates 50 < [fold] ≤ 500) | B (B indicates 50 < [fold] ≤ 500) | B (B indicates 50 < [fold] ≤ 500) | > 1 | < 1 | > 1 | C=CC(=O)Nc1ccc2c(-c3ccccc3CNc3nc(N4CCS(=O)(=O)CC4)nc4c(C(C)C)cnn34)nccc2c1 [Compound 113]

Source: patent US12606561B2, “Substituted pyrazolo[1,5-a][1,3,5]triazines as CDK inhibitors” (QURIENT CO., LTD., priority 2018, dated 2026)
